According to ChEMBL document CHEMBL1201862, “PubChem BioAssay data set” (2004):
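Growth conditions: 96-well plates. Treatment: test compound, 48 hours, 5 concentrations. Analysis: linear interpolation between bracketing concentrations; unreached endpoints set to highest concentration. At the GI50, growth is halved.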 Calls of active or inactive are those of the source. Rule as the data show it: active = GI50 up to about 1.1 µM and inactive = higher.

Columns and labels:
Test in all cases: inhibition of tumour cell growth, NCI panel, 48 h
HCC 2998 = test system: HCC 2998
SR = test system: SR
SK-MEL-5 = test system: SK-MEL-5
OVCAR-5 = test system: OVCAR-5
TK-10 = test system: TK-10
HT-29 = test system: HT-29
DU-145 = test system: DU-145
OVCAR-8 = test system: OVCAR-8
HCT-116 = test system: HCT-116
SK-MEL-2 = test system: SK-MEL-2
SNB-19 = test system: SNB-19
SK-OV-3 = test system: SK-OV-3
OVCAR-3 = test system: OVCAR-3
NCI-H460 = test system: NCI-H460
M14 = test system: M14
U-251 = test system: U-251
RPMI-8226 = test system: RPMI-8226
CCRF-CEM = test system: CCRF-CEM
A549 = test system: A549
Malme-3M = test system: Malme-3M

Row | SMILES | GI50 (HCC 2998) | GI50 (SR) | GI50 (SK-MEL-5) | GI50 (OVCAR-5) | GI50 (TK-10) | GI50 (HT-29) | GI50 (DU-145) | GI50 (OVCAR-8) | GI50 (HCT-116) | GI50 (SK-MEL-2) | GI50 (SNB-19) | GI50 (SK-OV-3) | GI50 (OVCAR-3) | GI50 (NCI-H460) | GI50 (M14) | GI50 (U-251) | GI50 (RPMI-8226) | GI50 (CCRF-CEM) | GI50 (A549) | GI50 (Malme-3M)
1 | Cc1nc2cccc(F)c2c(=O)n1-c1nnc(C2CC2)s1 | > 10 µM (inactive) | > 10 µM (inactive) | > 10 µM (inactive) | > 10 µM (inactive) | > 10 µM (inactive) | > 10 µM (inactive) | > 10 µM (inactive) | > 10 µM (inactive) | > 10 µM (inactive) | > 10 µM (inactive) | > 10 µM (inactive) | > 10 µM (inactive) | > 10 µM (inactive) | > 10 µM (inactive) | > 10 µM (inactive) | > 10 µM (inactive) | > 10 µM (inactive) | > 10 µM (inactive) | > 10 µM (inactive) | 
2 | N=C(N)NS(=O)(=O)c1ccc(Nc2c3ccccc3nc3c(C(=O)NC(CO)(CO)CO)cccc23)cc1 | 32.1 µM (inactive) | 12.5 µM (inactive) | 17.5 µM (inactive) | 11.9 µM (inactive) | 47.3 µM (inactive) | 21.3 µM (inactive) | 32.4 µM (inactive) | 29 µM (inactive) |  | 19.1 µM (inactive) | 28.1 µM (inactive) | 22 µM (inactive) | 27.5 µM (inactive) | 2.88 µM (inactive) | 30.6 µM (inactive) | 12.2 µM (inactive) | 20.1 µM (inactive) | 4.63 µM (inactive) | 9.66 µM (inactive) | 19.4 µM (inactive)
3 | C[N+](C)(C)CCOP(=O)([O-])OCCNC(=O)c1ccc2ccccc2c1 | > 100 µM (inactive) | > 100 µM (inactive) | > 100 µM (inactive) | > 100 µM (inactive) | > 100 µM (inactive) | > 100 µM (inactive) | > 100 µM (inactive) | > 100 µM (inactive) | > 100 µM (inactive) |  | > 100 µM (inactive) | > 100 µM (inactive) | > 100 µM (inactive) |  | > 100 µM (inactive) | > 100 µM (inactive) | > 100 µM (inactive) | > 100 µM (inactive) | > 100 µM (inactive) | > 100 µM (inactive)
4 | CCN(CC)C(=S)SC1CCOP(=O)(N(CCCl)CCCl)N1C (stereo unspecified) | 33.4 µM (inactive) | 0.185 µM (active) | 2.96 µM (inactive) | 12.1 µM (inactive) | > 71.1 µM (inactive) | 1.99 µM (inactive) | > 100 µM (inactive) | 29.9 µM (inactive) | 0.412 µM (active) | 20.5 µM (inactive) | > 92.9 µM (inactive) | > 80.2 µM (inactive) | > 100 µM (inactive) | 1.02 µM (active) | > 39.7 µM (inactive) |  | 1.34 µM (inactive) | 0.109 µM (active) |  | 27.5 µM (inactive)
5 | COc1ccc(-n2c(CCC(=O)O)nc3c2C(=O)c2ccccc2C3=O)cc1 | > 100 µM (inactive) | > 100 µM (inactive) | > 100 µM (inactive) | > 100 µM (inactive) | > 100 µM (inactive) | > 100 µM (inactive) | > 100 µM (inactive) | > 100 µM (inactive) | 80.2 µM (inactive) | 88.1 µM (inactive) | > 100 µM (inactive) | > 100 µM (inactive) | 98.2 µM (inactive) | > 100 µM (inactive) | > 100 µM (inactive) | > 100 µM (inactive) | > 100 µM (inactive) | 88.9 µM (inactive) | > 100 µM (inactive) | 
6 | CC(=O)OCC1OC(n2c3c(c(-c4cccc5ccccc45)c(C#N)c2=S)CCCC3)C(OC(C)=O)C(OC(C)=O)C1OC(C)=O (stereo unspecified) | > 100 µM (inactive) | > 100 µM (inactive) | > 100 µM (inactive) | > 100 µM (inactive) | > 100 µM (inactive) | > 100 µM (inactive) | > 100 µM (inactive) | > 100 µM (inactive) | > 100 µM (inactive) | 20.7 µM (inactive) | > 100 µM (inactive) | > 100 µM (inactive) | > 100 µM (inactive) | > 100 µM (inactive) | 66.7 µM (inactive) | > 100 µM (inactive) |  | > 100 µM (inactive) | > 100 µM (inactive) | > 100 µM (inactive)
7 | O=C(/C=C/c1ccccc1)CCC1C(=O)c2ccccc2C1=O | > 100 µM (inactive) | 66.2 µM (inactive) | > 100 µM (inactive) | > 100 µM (inactive) |  | > 100 µM (inactive) | > 100 µM (inactive) | > 100 µM (inactive) | > 100 µM (inactive) | > 100 µM (inactive) | > 100 µM (inactive) | > 100 µM (inactive) | > 100 µM (inactive) | > 100 µM (inactive) | > 100 µM (inactive) | > 100 µM (inactive) | 73.6 µM (inactive) | > 100 µM (inactive) | > 100 µM (inactive) | > 100 µM (inactive)
